ChEMBL document CHEMBL1201862, “PubChem BioAssay data set” (2004)
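Protocol summary: plate cells (96-well), add compound at 5 concentrations, incubate 48 h, interpolate endpoints linearly. GI50 = concentration required for 50% inhibition of growth.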 The source made the active and inactive calls. No stated cut-off is given here; in the data, active = GI50 up to about 1.1 µM and inactive = higher.

Key:
Assay in all cases: DTP human tumour cell line panel, 48 h
[1] = system: SR
[2] = system: MDA-MB-231
[3] = system: SF-539
[4] = system: NCI-H23
[5] = system: IGROV-1
[6] = system: CAKI-1
[7] = system: LOX IMVI
[8] = system: 786-0
[9] = system: PC-3
[10] = system: HL-60
[11] = system: NCI-H460
[12] = system: HCT-116
[13] = system: UACC-257
[14] = system: HCT-15
[15] = system: HT-29
[16] = system: ACHN
[17] = system: K562
[18] = system: KM12
[19] = system: LXFL 529
[20] = system: SNB-78

Row | SMILES | GI50 [1] | GI50 [2] | GI50 [3] | GI50 [4] | GI50 [5] | GI50 [6] | GI50 [7] | GI50 [8] | GI50 [9] | GI50 [10] | GI50 [11] | GI50 [12] | GI50 [13] | GI50 [14] | GI50 [15] | GI50 [16] | GI50 [17] | GI50 [18] | GI50 [19] | GI50 [20]
1 | COC(=O)c1ccc(C)cc1C1CN=NC12Cc1cc(C)ccc1C2=O (stereo not drawn) | 4.41 µM (inactive) | 14 µM (inactive) | 13.9 µM (inactive) | 18.1 µM (inactive) | 8.85 µM (inactive) | 11.8 µM (inactive) | 10.4 µM (inactive) | 21.3 µM (inactive) | 11.5 µM (inactive) | 3.58 µM (inactive) | 27.5 µM (inactive) | 7.64 µM (inactive) | 17.7 µM (inactive) | 5.24 µM | 3.32 µM (inactive) | 28.1 µM (inactive) | 4.84 µM (inactive) | 6.14 µM (inactive) |  | 
2 | Cc1cn2c(/C=N/NC(=N)N)c(-c3cccc([N+](=O)[O-])c3)nc2s1 | 1.77 µM (inactive) | 1.41 µM (inactive) | 1.98 µM (inactive) | 2.39 µM (inactive) | 5.56 µM (inactive) | 2.42 µM (inactive) | 0.849 µM (active) | 1.47 µM (inactive) | 1.74 µM (inactive) | 1.92 µM (inactive) | 2.01 µM (inactive) | 0.366 µM (active) | 2.11 µM (inactive) | 4.41 µM | 0.514 µM (active) | 1.67 µM (inactive) | 0.215 µM (active) | 0.647 µM (active) |  | 
3 | CC1=CC(c2ccccc2)n2c(nc3cc4ccccc4cc32)N1 (stereo not drawn) | 90.4 µM (inactive) | > 100 µM (inactive) | > 100 µM (inactive) | > 100 µM (inactive) | > 100 µM (inactive) | > 100 µM (inactive) | > 100 µM (inactive) | > 100 µM (inactive) | > 100 µM (inactive) | > 100 µM (inactive) | > 100 µM (inactive) | > 100 µM (inactive) | > 100 µM (inactive) | > 100 µM | > 100 µM (inactive) | > 100 µM (inactive) | > 100 µM (inactive) | > 100 µM (inactive) |  | 
4 | CCCCCCCCCC(=O)CC(=O)c1ccc(O)cc1O | 15.8 µM (inactive) |  | 26.5 µM (inactive) | 25.6 µM (inactive) | 31.5 µM (inactive) | 23.7 µM (inactive) | 17.5 µM (inactive) | 33.5 µM (inactive) |  | 19 µM (inactive) | 31.8 µM (inactive) | 26.1 µM (inactive) | 28.8 µM (inactive) | 30.2 µM | 35.9 µM (inactive) | 28.6 µM (inactive) | 29.1 µM (inactive) | 21.4 µM (inactive) | 30.5 µM (inactive) | 
5 | CCNC1C2(CCCCC2)NC(=O)C12CCCCC2 (stereo not drawn) |  |  | > 100 µM (inactive) | > 100 µM (inactive) | > 100 µM (inactive) | > 100 µM (inactive) |  | > 100 µM (inactive) |  | > 100 µM (inactive) | > 100 µM (inactive) | > 100 µM (inactive) | > 100 µM (inactive) | > 100 µM | > 100 µM (inactive) | > 100 µM (inactive) | > 100 µM (inactive) | > 100 µM (inactive) | > 100 µM (inactive) | > 100 µM (inactive)
6 | CCC12C=CCN3CCC4(C(=C(C(=O)OC)C1)Nc1ccccc14)[C@H]32 (stereo partly drawn) | 0.0364 µM (active) |  | 20.5 µM (inactive) | 28.4 µM (inactive) | 39.1 µM (inactive) | > 100 µM (inactive) | 20.8 µM (inactive) | 23.4 µM (inactive) |  | 16 µM (inactive) | 18.8 µM (inactive) | 30.8 µM (inactive) | 34.4 µM (inactive) | 40.3 µM | 22.6 µM (inactive) | 64 µM (inactive) | 18.8 µM (inactive) | 25.8 µM (inactive) | 31.6 µM (inactive) | 
7 | O=C(NCCNCCO)N/N=C/c1ccccc1 |  |  | > 100 µM (inactive) | > 100 µM (inactive) | > 100 µM (inactive) |  | > 100 µM (inactive) | > 100 µM (inactive) |  | 79.3 µM (inactive) | > 100 µM (inactive) | > 100 µM (inactive) | > 100 µM (inactive) | > 100 µM | > 100 µM (inactive) | > 100 µM (inactive) | > 100 µM (inactive) | > 100 µM (inactive) | > 100 µM (inactive) | > 100 µM (inactive)
8 | CO[C@@]12CC(=O)/C(=C(O)\C=C\c3ccccc3)C(=O)[C@]1(OC)Cc1ccccc1O2 |  |  | 24 µM (inactive) | 20.6 µM (inactive) | 54 µM (inactive) |  | 32.3 µM (inactive) | 24.7 µM (inactive) |  |  | 28.9 µM (inactive) | 30.1 µM (inactive) | 30.1 µM (inactive) | 20 µM | 37.5 µM (inactive) | 25.4 µM (inactive) | 33.7 µM (inactive) | 19.8 µM (inactive) | 33.7 µM (inactive) | 30.5 µM (inactive)
9 | C[C@H]1CCC/C=C/[C@@H]2C[C@H](OC(=O)CN(C)C)C[C@H]2[C@H](O)/C=C/C(=O)O1 | 0.153 µM (active) | 0.0152 µM (active) | 0.148 µM (active) | 0.129 µM (active) | 0.57 µM (active) | 0.161 µM (active) | 0.0861 µM (active) | 0.0462 µM (active) | 0.141 µM (active) | 0.22 µM (active) | 0.365 µM (active) | 0.242 µM (active) | 0.109 µM (active) | 0.188 µM | 0.105 µM (active) | 0.2 µM (active) | 0.241 µM (active) | 0.0522 µM (active) |  | 
10 | Cn1cc(NC(=O)c2cc(NC(=O)CCCCCCCCC(=O)Nc3cc(C(=O)Nc4cc(C(=O)NCCC(N)N)n(C)c4)n(C)c3)cn2C)cc1C(=O)NCCC(=N)N |  |  | 22.6 µM (inactive) | 33.9 µM (inactive) | 24.5 µM (inactive) | 22.5 µM (inactive) | 36.9 µM (inactive) | 21.9 µM (inactive) |  |  | 20.1 µM (inactive) | 20 µM (inactive) | 13.7 µM (inactive) | 35.4 µM | 18.8 µM (inactive) | 17.9 µM (inactive) | 13.4 µM (inactive) | 18.5 µM (inactive) | 27.2 µM (inactive) | 34.6 µM (inactive)
11 | CC1(C)CC(=O)C2=C(C1)C(c1ccccc1Cl)C1C(=O)CC(C)(C)CC1(O)O2 (stereo not drawn) | 28.1 µM (inactive) | > 100 µM (inactive) | 69 µM (inactive) | > 100 µM (inactive) | > 100 µM (inactive) | 98.2 µM (inactive) | > 68.2 µM (inactive) | > 100 µM (inactive) | > 100 µM (inactive) | 4.91 µM (inactive) | > 100 µM (inactive) | 26.9 µM (inactive) | > 49.9 µM (inactive) | 42.5 µM | > 100 µM (inactive) | > 100 µM (inactive) | 15.3 µM (inactive) | > 100 µM (inactive) |  | 
12 | CC(C)C(NC(=O)C(Cc1ccccc1)NC(=O)[C@H]1CCC[C@H]1NC(=O)C(N)Cc1ccc(O)cc1)C(N)=O (stereo partly drawn) | > 100 µM (inactive) | > 100 µM (inactive) | > 100 µM (inactive) | > 100 µM (inactive) | > 100 µM (inactive) | > 100 µM (inactive) | > 100 µM (inactive) | > 100 µM (inactive) | > 100 µM (inactive) | > 100 µM (inactive) | > 100 µM (inactive) | > 100 µM (inactive) | > 100 µM (inactive) | > 100 µM | > 100 µM (inactive) | > 100 µM (inactive) | > 100 µM (inactive) | > 100 µM (inactive) |  | 
13 | Cc1c(O)c(O)cc[n+]1C1OC(CO)C(O)C1O (stereo not drawn) |  |  |  | > 100 µM (inactive) | > 100 µM (inactive) | > 100 µM (inactive) | > 100 µM (inactive) | > 100 µM (inactive) |  |  | > 100 µM (inactive) | > 100 µM (inactive) | > 100 µM (inactive) | > 100 µM | > 100 µM (inactive) | > 100 µM (inactive) | > 100 µM (inactive) | > 100 µM (inactive) | 33.1 µM (inactive) | > 100 µM (inactive)
14 | Cc1cccc(Cl)c1NC(=O)c1cccc([N+](=O)[O-])c1O |  |  | 26.8 µM (inactive) | 28.1 µM (inactive) | 34.5 µM (inactive) | 46.1 µM (inactive) | 27.5 µM (inactive) | 56 µM (inactive) |  | > 10 µM (inactive) | 29 µM (inactive) | 43.3 µM (inactive) | 28.4 µM (inactive) | 35.6 µM | 41.8 µM (inactive) | 31.9 µM (inactive) | 36.7 µM (inactive) | 21.3 µM (inactive) | 50.6 µM (inactive) | 71 µM (inactive)
15 | CO[C@H]1C[C@H](O[C@H]2CC[C@]3(C=O)[C@H]4CC[C@]5(C)[C@@H](C6=CC(=O)OC6)CC[C@]5(O)[C@@H]4CC[C@]3(O)C2)O[C@H](C)[C@H]1O[C@@H]1O[C@H](CO[C@@H]2O[C@H](CO)[C@@H](O)[C@H](O)[C@H]2O)[C@@H](O)[C@H](O)[C@H]1O | 0.0188 µM (active) | 0.355 µM (active) | 0.0353 µM (active) | 0.016 µM (active) | 0.0259 µM (active) | 0.0223 µM (active) | 0.0373 µM (active) | 0.0272 µM (active) | 0.038 µM (active) | 0.0361 µM (active) | < 0.0132 µM (active) | 0.0239 µM (active) | 0.239 µM (active) | 0.0405 µM | 0.0442 µM (active) | 0.0186 µM (active) | 0.0857 µM (active) | 0.104 µM (active) |  | 
16 | CCCCCCCCCCCCCCCCC(C(=O)O)C(O)(CC(=O)O)C(=O)O (stereo not drawn) | 24.7 µM (inactive) | 27.5 µM (inactive) | 28.1 µM (inactive) | 29 µM (inactive) | 22.1 µM (inactive) | 21.4 µM (inactive) | 26.5 µM (inactive) | 35.2 µM (inactive) | 19.5 µM (inactive) | 14.8 µM (inactive) | 17.5 µM (inactive) | 19.1 µM (inactive) | 34.1 µM (inactive) | 21.5 µM | 21.2 µM (inactive) | 40.6 µM (inactive) | 35.2 µM (inactive) | 21.2 µM (inactive) |  | 
